Measured values reported in ChEMBL document CHEMBL1201862, “PubChem BioAssay data set” (2004).
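Following 48 hours of exposure in 96-well plates, responses at five concentrations were used to interpolate endpoints linearly. GI50: concentration for 50% inhibition of growth.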 The source made the active and inactive calls. Rule as the data show it: active = GI50 up to about 1.1 µM and inactive = higher.

Key:
Assay in all cases: inhibition of tumour cell growth, NCI panel, 48 h
[1] = test system: CCRF-CEM
[2] = test system: HCT-116
[3] = test system: HOP-92
[4] = test system: IGROV-1
[5] = test system: K562
[6] = test system: KM12
[7] = test system: MCF7
[8] = test system: MDA-N
[9] = test system: Malme-3M
[10] = test system: NCI-H226
[11] = test system: NCI/ADR-RES
[12] = test system: OVCAR-5
[13] = test system: OVCAR-8
[14] = test system: RXF 393
[15] = test system: SK-MEL-5
[16] = test system: SN12C
[17] = test system: SNB-19
[18] = test system: SR
[19] = test system: UACC-257
[20] = test system: RPMI-8226

Measured: GI50

Cc1ccc(/N=C2\OP(=O)(Nc3ccc(C)cc3)Oc3ccccc32)cc1 (configuration not stated)
inactive: [1] > 100 µM | [2] 87.9 µM | [3] 30 µM | [4] > 100 µM | [5] 50.6 µM | [6] > 100 µM | [7] 90.6 µM | [8] > 100 µM | [9] > 100 µM | [10] > 100 µM | [11] > 100 µM | [12] > 100 µM | [13] > 100 µM | [14] 81.5 µM | [15] 73.1 µM | [16] > 100 µM | [17] > 100 µM | [18] > 100 µM | [19] > 100 µM

C[C@H]1C[C@H](C)c2ccccc2N(C)/C1=N\c1ccccc1
inactive: [2] 13.3 µM | [3] 8.51 µM | [4] 21.9 µM | [5] 66.7 µM | [6] 43.3 µM | [7] 25.1 µM | [8] 23.4 µM | [9] 22.6 µM | [10] 24.5 µM | [11] 27.2 µM | [12] 21.4 µM | [13] 43.2 µM | [20] 36.7 µM | [14] 34.6 µM | [15] 16.7 µM | [16] 36.6 µM | [17] 37.8 µM | [18] 24.4 µM | [19] 20.3 µM

CC(=O)OCC1OC(n2c(C#N)cc(=O)[nH]c2=O)CC1OC(C)=O (configuration not stated)
inactive: [1] > 100 µM | [2] > 100 µM | [3] > 100 µM | [4] > 100 µM | [5] > 100 µM | [6] > 100 µM | [7] > 100 µM | [8] > 100 µM | [9] > 100 µM | [10] > 100 µM | [11] > 100 µM | [12] > 100 µM | [13] > 100 µM | [14] > 100 µM | [15] > 100 µM | [16] > 100 µM | [17] > 100 µM | [18] > 100 µM | [19] > 100 µM
